According to PubChem BioAssay (NCI):
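How tested: cells in 96-well plates exposed to compound for 48 hours at five concentrations. Definition used: TGI = concentration required for complete inhibition of growth.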

Experiments:
Assay in all cases: inhibition of tumour cell growth, NCI panel, 48 h
OVCAR-4 ovarian = test system: OVCAR-4 ovarian
786-0 renal = test system: 786-0 renal
SR leukemia = test system: SR leukemia
CAKI-1 renal = test system: CAKI-1 renal
SF-539 CNS = test system: SF-539 CNS
DMS 273 small cell lung = test system: DMS 273 small cell lung
KM20L2 colon = test system: KM20L2 colon
K-562 leukemia = test system: K-562 leukemia
NCI-H522 lung = test system: NCI-H522 lung
UO-31 renal = test system: UO-31 renal
SK-MEL-2 melanoma = test system: SK-MEL-2 melanoma
SNB-75 CNS = test system: SNB-75 CNS
SW-620 colon = test system: SW-620 colon
SK-MEL-5 melanoma = test system: SK-MEL-5 melanoma
SNB-78 CNS = test system: SNB-78 CNS
DLD-1 colon = test system: DLD-1 colon
SF-268 CNS = test system: SF-268 CNS
LOX IMVI melanoma = test system: LOX IMVI melanoma
IGROV1 ovarian = test system: IGROV1 ovarian
RPMI-8226 leukemia = test system: RPMI-8226 leukemia
HOP-62 NSCLC = test system: HOP-62 NSCLC
TK-10 renal = test system: TK-10 renal
NCI-H460 lung = test system: NCI-H460 lung
ACHN renal = test system: ACHN renal
SNB-19 CNS = test system: SNB-19 CNS
U251 CNS = test system: U251 CNS
COLO 205 colon = test system: COLO 205 colon
M14 melanoma = test system: M14 melanoma
MOLT-4 leukemia = test system: MOLT-4 leukemia
HCT-15 colon = test system: HCT-15 colon
M19-MEL melanoma = test system: M19-MEL melanoma
SK-MEL-28 melanoma = test system: SK-MEL-28 melanoma
RXF 393 renal = test system: RXF 393 renal
NCI-H23 lung = test system: NCI-H23 lung
SF-295 CNS = test system: SF-295 CNS
A549 NSCLC = test system: A549 NSCLC
DMS 114 small cell lung = test system: DMS 114 small cell lung
OVCAR-8 ovarian = test system: OVCAR-8 ovarian
UACC-62 melanoma = test system: UACC-62 melanoma
SN12C renal = test system: SN12C renal
HCT-116 colon = test system: HCT-116 colon
LXFL 529 NSCLC = test system: LXFL 529 NSCLC
EKVX NSCLC = test system: EKVX NSCLC
SK-OV-3 ovarian = test system: SK-OV-3 ovarian
A498 renal = test system: A498 renal
OVCAR-5 ovarian = test system: OVCAR-5 ovarian
CCRF-CEM leukemia = test system: CCRF-CEM leukemia
HL-60(TB) leukemia = test system: HL-60(TB) leukemia
UACC-257 melanoma = test system: UACC-257 melanoma
XF 498 CNS = test system: XF 498 CNS
HOP-92 NSCLC = test system: HOP-92 NSCLC
KM12 colon = test system: KM12 colon
HT29 colon = test system: HT29 colon
MALME-3M melanoma = test system: MALME-3M melanoma
HCC-2998 colon = test system: HCC-2998 colon
OVCAR-3 ovarian = test system: OVCAR-3 ovarian
NCI-H226 lung = test system: NCI-H226 lung
HOP-18 NSCLC = test system: HOP-18 NSCLC

**Q.** `CC(C)CCC[C@@H](C)[C@H]1CC[C@H]2[C@@H]3CC=C4CC(OCCCCN(O)CCCSC5OC(CO)C(O)C(O)C5O)CC[C@]4(C)[C@H]3CC[C@]12C` (stereo not given in full) was tested. Which TGI (OVCAR-4 ovarian) did it give?
**A.** > 100 µM

**Q.** And the TGI (786-0 renal)?
**A.** 32.5 µM

**Q.** And the TGI (SR leukemia)?
**A.** > 100 µM

**Q.** What about the TGI (CAKI-1 renal) of the same compound?
**A.** > 100 µM

**Q.** What about the TGI (SF-539 CNS) of the same compound?
**A.** 32.8 µM

**Q.** And the TGI (DMS 273 small cell lung)?
**A.** > 100 µM

**Q.** And the TGI (KM20L2 colon)?
**A.** > 100 µM

**Q.** And the TGI (K-562 leukemia)?
**A.** > 100 µM

**Q.** What about the TGI (NCI-H522 lung) of the same compound?
**A.** 49.6 µM

**Q.** What about the TGI (UO-31 renal) of the same compound?
**A.** > 100 µM

**Q.** And the TGI (SK-MEL-2 melanoma)?
**A.** 92.1 µM

**Q.** What about the TGI (SNB-75 CNS) of the same compound?
**A.** > 100 µM

**Q.** What about the TGI (SW-620 colon) of the same compound?
**A.** 49.4 µM

**Q.** What about the TGI (SK-MEL-5 melanoma) of the same compound?
**A.** > 100 µM

**Q.** What about the TGI (SNB-78 CNS) of the same compound?
**A.** > 100 µM

**Q.** What about the TGI (DLD-1 colon) of the same compound?
**A.** > 100 µM

**Q.** And the TGI (SF-268 CNS)?
**A.** > 100 µM

**Q.** And the TGI (LOX IMVI melanoma)?
**A.** 50.7 µM

**Q.** And the TGI (IGROV1 ovarian)?
**A.** 50 µM

**Q.** And the TGI (RPMI-8226 leukemia)?
**A.** > 100 µM

**Q.** And the TGI (HOP-62 NSCLC)?
**A.** > 100 µM

**Q.** What about the TGI (TK-10 renal) of the same compound?
**A.** > 100 µM

**Q.** And the TGI (NCI-H460 lung)?
**A.** > 100 µM

**Q.** And the TGI (ACHN renal)?
**A.** > 100 µM

**Q.** What about the TGI (SNB-19 CNS) of the same compound?
**A.** > 100 µM

**Q.** What about the TGI (U251 CNS) of the same compound?
**A.** 75.1 µM

**Q.** What about the TGI (COLO 205 colon) of the same compound?
**A.** 47.3 µM

**Q.** What about the TGI (M14 melanoma) of the same compound?
**A.** 56.3 µM

**Q.** What about the TGI (MOLT-4 leukemia) of the same compound?
**A.** > 100 µM

**Q.** What about the TGI (HCT-15 colon) of the same compound?
**A.** > 100 µM

**Q.** What about the TGI (M19-MEL melanoma) of the same compound?
**A.** > 100 µM

**Q.** What about the TGI (SK-MEL-28 melanoma) of the same compound?
**A.** > 100 µM

**Q.** And the TGI (RXF 393 renal)?
**A.** > 100 µM

**Q.** And the TGI (NCI-H23 lung)?
**A.** > 100 µM

**Q.** What about the TGI (SF-295 CNS) of the same compound?
**A.** > 100 µM

**Q.** What about the TGI (A549 NSCLC) of the same compound?
**A.** > 100 µM

**Q.** And the TGI (DMS 114 small cell lung)?
**A.** 45.6 µM

**Q.** And the TGI (OVCAR-8 ovarian)?
**A.** > 100 µM

**Q.** And the TGI (UACC-62 melanoma)?
**A.** > 100 µM

**Q.** And the TGI (SN12C renal)?
**A.** > 100 µM

**Q.** And the TGI (HCT-116 colon)?
**A.** > 100 µM

**Q.** And the TGI (LXFL 529 NSCLC)?
**A.** 47.3 µM

**Q.** What about the TGI (EKVX NSCLC) of the same compound?
**A.** > 100 µM

**Q.** What about the TGI (SK-OV-3 ovarian) of the same compound?
**A.** > 100 µM

**Q.** What about the TGI (A498 renal) of the same compound?
**A.** > 100 µM

**Q.** And the TGI (OVCAR-5 ovarian)?
**A.** > 100 µM

**Q.** What about the TGI (CCRF-CEM leukemia) of the same compound?
**A.** 72 µM

**Q.** What about the TGI (HL-60(TB) leukemia) of the same compound?
**A.** > 100 µM

**Q.** And the TGI (UACC-257 melanoma)?
**A.** > 100 µM

**Q.** What about the TGI (XF 498 CNS) of the same compound?
**A.** > 100 µM

**Q.** What about the TGI (HOP-92 NSCLC) of the same compound?
**A.** > 100 µM

**Q.** What about the TGI (KM12 colon) of the same compound?
**A.** > 100 µM

**Q.** And the TGI (HT29 colon)?
**A.** > 100 µM

**Q.** For `COc1cc2c(oc(=O)c3c4oc([Si](C)(C)C)cc4cc(OC)c23)c2cccc(O)c12`, which TGI (OVCAR-4 ovarian) is on record?
**A.** > 100 µM

**Q.** What about the TGI (786-0 renal) of the same compound?
**A.** > 100 µM

**Q.** And the TGI (SR leukemia)?
**A.** > 100 µM

**Q.** What about the TGI (CAKI-1 renal) of the same compound?
**A.** > 100 µM

**Q.** And the TGI (SF-539 CNS)?
**A.** > 100 µM

**Q.** What about the TGI (DMS 273 small cell lung) of the same compound?
**A.** > 100 µM

**Q.** And the TGI (KM20L2 colon)?
**A.** > 100 µM

**Q.** And the TGI (K-562 leukemia)?
**A.** > 100 µM

**Q.** And the TGI (NCI-H522 lung)?
**A.** > 100 µM

**Q.** And the TGI (UO-31 renal)?
**A.** > 100 µM

**Q.** And the TGI (MALME-3M melanoma)?
**A.** > 100 µM

**Q.** And the TGI (SK-MEL-2 melanoma)?
**A.** > 100 µM

**Q.** And the TGI (SNB-75 CNS)?
**A.** > 100 µM

**Q.** And the TGI (SW-620 colon)?
**A.** > 100 µM

**Q.** And the TGI (HCC-2998 colon)?
**A.** > 100 µM

**Q.** What about the TGI (SK-MEL-5 melanoma) of the same compound?
**A.** > 100 µM

**Q.** What about the TGI (DLD-1 colon) of the same compound?
**A.** > 100 µM

**Q.** What about the TGI (SF-268 CNS) of the same compound?
**A.** > 100 µM

**Q.** What about the TGI (LOX IMVI melanoma) of the same compound?
**A.** > 100 µM

**Q.** What about the TGI (IGROV1 ovarian) of the same compound?
**A.** > 100 µM

**Q.** What about the TGI (OVCAR-3 ovarian) of the same compound?
**A.** > 100 µM

**Q.** What about the TGI (RPMI-8226 leukemia) of the same compound?
**A.** > 100 µM

**Q.** And the TGI (HOP-62 NSCLC)?
**A.** > 100 µM

**Q.** And the TGI (TK-10 renal)?
**A.** > 100 µM

**Q.** And the TGI (NCI-H460 lung)?
**A.** > 100 µM

**Q.** And the TGI (ACHN renal)?
**A.** > 100 µM

**Q.** And the TGI (SNB-19 CNS)?
**A.** > 100 µM

**Q.** What about the TGI (U251 CNS) of the same compound?
**A.** > 100 µM

**Q.** And the TGI (COLO 205 colon)?
**A.** > 100 µM

**Q.** What about the TGI (M14 melanoma) of the same compound?
**A.** > 100 µM

**Q.** What about the TGI (MOLT-4 leukemia) of the same compound?
**A.** > 100 µM

**Q.** And the TGI (HCT-15 colon)?
**A.** > 100 µM

**Q.** And the TGI (M19-MEL melanoma)?
**A.** > 100 µM

**Q.** What about the TGI (NCI-H226 lung) of the same compound?
**A.** > 100 µM

**Q.** And the TGI (SK-MEL-28 melanoma)?
**A.** > 100 µM

**Q.** And the TGI (RXF 393 renal)?
**A.** > 100 µM

**Q.** What about the TGI (NCI-H23 lung) of the same compound?
**A.** > 100 µM

**Q.** And the TGI (SF-295 CNS)?
**A.** > 100 µM

**Q.** And the TGI (A549 NSCLC)?
**A.** > 100 µM

**Q.** What about the TGI (DMS 114 small cell lung) of the same compound?
**A.** > 100 µM

**Q.** What about the TGI (OVCAR-8 ovarian) of the same compound?
**A.** > 100 µM

**Q.** What about the TGI (UACC-62 melanoma) of the same compound?
**A.** > 100 µM

**Q.** And the TGI (SN12C renal)?
**A.** > 100 µM

**Q.** And the TGI (HCT-116 colon)?
**A.** > 100 µM

**Q.** And the TGI (LXFL 529 NSCLC)?
**A.** > 100 µM

**Q.** What about the TGI (EKVX NSCLC) of the same compound?
**A.** > 100 µM

**Q.** What about the TGI (SK-OV-3 ovarian) of the same compound?
**A.** > 100 µM

**Q.** What about the TGI (A498 renal) of the same compound?
**A.** > 100 µM

**Q.** What about the TGI (OVCAR-5 ovarian) of the same compound?
**A.** > 100 µM

**Q.** What about the TGI (CCRF-CEM leukemia) of the same compound?
**A.** > 100 µM

**Q.** What about the TGI (HL-60(TB) leukemia) of the same compound?
**A.** > 100 µM

**Q.** What about the TGI (HOP-18 NSCLC) of the same compound?
**A.** > 100 µM

**Q.** What about the TGI (UACC-257 melanoma) of the same compound?
**A.** > 100 µM

**Q.** And the TGI (XF 498 CNS)?
**A.** > 100 µM

**Q.** And the TGI (HOP-92 NSCLC)?
**A.** > 100 µM

**Q.** What about the TGI (KM12 colon) of the same compound?
**A.** > 100 µM

**Q.** And the TGI (HT29 colon)?
**A.** > 100 µM
